Data reported in patent US9293713B2, “Arylamine compound” (RICOH COMPANY, LTD., priority 2012, dated 2016).
Each block holds one molecule with its values, some of them ahead of it.

How the values were obtained:
[1] = Preparation of ink (evaluation of solubility): degree of solubility from saturated solution; assay type: physicochemical; conditions: for degree of solubility, 1,2,3,4-Tetrahydronaphthalene: solvent 1,2,3,4-tetrahydronaphthalene (Tetralin); for degree of solubility, 2-Propanol: solvent 2-propanol; for degree of solubility, ethyl benzoate: solvent ethyl benzoate; for degree of solubility, Toluene: solvent toluene
Experimental: HTL17 was added to each of toluene, chloroform, 2-propanol, 1,2,3,4-tetrahydronaphthalene (Tetralin®), ethyl benzoate (100 mL respectively), until undissolved compound was observed. The mixture was stirred for 10 minute with refluxing the solvent. Then, mixture was cooled to ambient temperature, and stirred for 1 hour, followed by still standing for 16 hours. The supernatant was filtrated by PTFE filter having thickness of 0.2 μm to obtain saturated solution. The saturated solution was dried under reduced pressure to calculate degree of solubility for each solvent.
Evaluation criteria in Table 4 was described below.

[2] = Pyrolysis behavior observed by TG-DTA; assay type: physicochemical; conditions: for difference of mass reduced between theoretical value and actual measured value: heating
Experimental: HTL17 synthesized in Example 1 was heated at a range of 25° C. to 450° C. at a temperature increasing rate of 5° C./min and the pyrolysis behavior thereof was observed by TG-DTA [reference: Al2O3, under nitrogen flow (200 mL/min), EXSTAR6000 (product name), product of Seiko Instruments Inc.].
The results are shown in FIG. 2, where the horizontal axis indicates temperature [° C.], the left-hand vertical axis indicates change in mass [mg] and the right-hand vertical axis indicates DTA signal [μV].

[3] = saturated solution at ambient temperature

Structure (SMILES): c1ccc2c(c1)-c1ccccc1C2(c1ccc(N(c2ccc3ccccc3c2)c2ccc3ccccc3c2)cc1)c1ccc(N(c2ccc3ccccc3c2)c2ccc3ccccc3c2)cc1 [NPAPF, 9,9-bis[4-(N,N-bis-naphthalene-2-yl-amino)phenyl]-9H-florene, reference compound]
degree of solubility, 1,2,3,4-Tetrahydronaphthalene [1, 3]: B (The degree of solubility is not less than 1% by mass but less than 5% by mass.)
degree of solubility, 2-Propanol [1, 3]: C (The degree of solubility is less than 1% by mass)
degree of solubility, ethyl benzoate [1, 3]: C (The degree of solubility is less than 1% by mass)
degree of solubility, Toluene [1, 3]: B (The degree of solubility is not less than 1% by mass but less than 5% by mass.)

Structure (SMILES): c1ccc(-c2ccc(N(c3ccc(-c4ccccc4)cc3)c3ccc(-c4ccc(N(c5ccc(-c6ccccc6)cc5)c5ccc(-c6ccccc6)cc5)cc4)cc3)cc2)cc1 [TBPB, N,N,N′,N′-tetra-biphenyl-4-yl-benzidine, reference compound]
degree of solubility, 1,2,3,4-Tetrahydronaphthalene ([1]; prophetic example): B (The degree of solubility is not less than 1% by mass but less than 5% by mass.)
degree of solubility, 2-Propanol ([1]; prophetic example): C (The degree of solubility is less than 1% by mass)
degree of solubility, ethyl benzoate ([1]; prophetic example): B (The degree of solubility is not less than 1% by mass but less than 5% by mass.)
degree of solubility, Toluene ([1]; prophetic example): A (The degree of solubility is not less than 5% by mass)

Structure (SMILES): c1ccc2cc(N(c3ccc(-c4ccc(N(c5ccc6ccccc6c5)c5cccc6ccccc56)cc4)cc3)c3cccc4ccccc34)ccc2c1 [α,β-TNB, 4,4′-bis[N-(1-naphthyl)-N-(2-naphthyl)amino]biphenyl, reference compound]
degree of solubility, 1,2,3,4-Tetrahydronaphthalene [1, 3]: A (The degree of solubility is not less than 5% by mass)
degree of solubility, 2-Propanol [1, 3]: C (The degree of solubility is less than 1% by mass)
degree of solubility, ethyl benzoate [1, 3]: B (The degree of solubility is not less than 1% by mass but less than 5% by mass.)
degree of solubility, Toluene [1, 3]: A (The degree of solubility is not less than 5% by mass)

Structure (SMILES): c1ccc2cc(N(c3ccc(-c4ccc(N(c5ccc6ccccc6c5)c5cccc6ccccc56)cc4)cc3)c3cccc4ccccc34)ccc2c1 [α-TNB, 4,4′-tetrakis[N-(1-naphthyl)-N-(2-naphthyl)amino]biphenyl, reference compound]
degree of solubility, 1,2,3,4-Tetrahydronaphthalene ([1]; prophetic example): B (The degree of solubility is not less than 1% by mass but less than 5% by mass.)
degree of solubility, 2-Propanol ([1]; prophetic example): C (The degree of solubility is less than 1% by mass)
degree of solubility, ethyl benzoate ([1]; prophetic example): B (The degree of solubility is not less than 1% by mass but less than 5% by mass.)
degree of solubility, Toluene ([1]; prophetic example): A (The degree of solubility is not less than 5% by mass)

The next lines start with results.

mass reduction ([2]; from ambient temperature to 250° C., 5° C./min, nitrogen flow): 40.0%
Structure (SMILES): CCCCCC(=O)OC1CCC(OC(=O)CCCCC)c2cc(N(c3ccc(-c4ccc(N(c5ccc6c(c5)C(OC(=O)CCCCC)CCC6OC(=O)CCCCC)c5ccc6ccccc6c5)cc4)cc3)c3ccc4ccccc4c3)ccc21 (stereo not drawn) [HTL17]
degree of solubility, 1,2,3,4-Tetrahydronaphthalene [1, 3]: A (The degree of solubility is not less than 5% by mass)
degree of solubility, 2-Propanol [1, 3]: A (The degree of solubility is not less than 5% by mass)
degree of solubility, ethyl benzoate [1, 3]: A (The degree of solubility is not less than 5% by mass)
degree of solubility, Toluene [1, 3]: A (The degree of solubility is not less than 5% by mass)

difference of mass reduced between theoretical value and actual measured value [2]: −0.12%
Structure (SMILES): CCCCCC(=O)OC1CCC(OC(=O)CCCCC)c2cc(N(c3ccc(-c4ccc(N(c5ccc6c(c5)C(OC(=O)CCCCC)CCC6OC(=O)CCCCC)c5cccc6ccccc56)cc4)cc3)c3cccc4ccccc34)ccc21 (stereo not drawn) [HTL18]
degree of solubility, 1,2,3,4-Tetrahydronaphthalene [1, 3]: A (The degree of solubility is not less than 5% by mass)
degree of solubility, 2-Propanol [1, 3]: A (The degree of solubility is not less than 5% by mass)
degree of solubility, ethyl benzoate [1, 3]: A (The degree of solubility is not less than 5% by mass)
degree of solubility, Toluene [1, 3]: A (The degree of solubility is not less than 5% by mass)

difference of mass reduced between theoretical value and actual measured value [2]: −0.16%
Structure (SMILES): CCCCCC(=O)OC1CCC(OC(=O)CCCCC)c2cc(N(c3ccc(C4(c5ccc(N(c6ccc7c(c6)C(OC(=O)CCCCC)CCC7OC(=O)CCCCC)c6ccc7ccccc7c6)cc5)c5ccccc5-c5ccccc54)cc3)c3ccc4ccccc4c3)ccc21 (stereo not drawn) [HTL33]
degree of solubility, 1,2,3,4-Tetrahydronaphthalene [1, 3]: A (The degree of solubility is not less than 5% by mass)
degree of solubility, 2-Propanol [1, 3]: B (The degree of solubility is not less than 1% by mass but less than 5% by mass.)
degree of solubility, ethyl benzoate [1, 3]: A (The degree of solubility is not less than 5% by mass)
degree of solubility, Toluene [1, 3]: A (The degree of solubility is not less than 5% by mass)

difference of mass reduced between theoretical value and actual measured value ([2]; prophetic example): −0.18%
Structure (SMILES): CCCCCC(=O)OC1C=C(c2ccc(N(c3ccc(C4=CC(OC(=O)CCCCC)CCC4OC(=O)CCCCC)cc3)c3ccc(-c4ccc(N(c5ccc(C6=CC(OC(=O)CCCCC)CCC6OC(=O)CCCCC)cc5)c5ccc(C6=CC(OC(=O)CCCCC)CCC6OC(=O)CCCCC)cc5)cc4)cc3)cc2)C(OC(=O)CCCCC)CC1 (stereo not drawn) [HTL34]
degree of solubility, 1,2,3,4-Tetrahydronaphthalene ([1]; prophetic example): A (The degree of solubility is not less than 5% by mass)
degree of solubility, 2-Propanol ([1]; prophetic example): B (The degree of solubility is not less than 1% by mass but less than 5% by mass.)
degree of solubility, ethyl benzoate ([1]; prophetic example): A (The degree of solubility is not less than 5% by mass)
degree of solubility, Toluene ([1]; prophetic example): A (The degree of solubility is not less than 5% by mass)
